Like-named read-outs stand apart in the source and are kept apart here.
Key:
[1] = test system: P. falciparum stages IV–V gametocytes; experiment: Gametocytocidal ATP-depletion assay (gametocyte ATP bioluminescence); format: cell-based, Plasmodium falciparum
Experimental: In parallel, the set of confirmed hits from the Pf FGAA screen was cross-compared in the gametocyte ATP-depletion assay, at 2 μM single concentration (Supplementary Data 1). This assay monitors ATP levels as surrogate of gametocyte viability.
‘Viability' of mature gametocytes was determined using the gametocyte ATP bioluminiscence assay. Briefly, stages IV–V gametocyte cultures were double-purified by differential sedimentation followed by magnetic isolation. Then, parasites (50 μl per well containing 12,500 gametocytes) were added to compound pre-dispensed 384-well plates (781091, Greiner Bio-One) and incubated at 37 °C for 48 h (3% O2, 5% CO2 and 92% N2). BacTiter-Glo kit (G8231, Promega) was used to determine the ATP levels of ‘live' parasites according to the manufacturer's instructions. After reagent addition (50 μl per well), luminescence of the plates was measured using a microplate reader (HTS counter Victor, Wallac).

[2] = test system: P. falciparum stage V female gametocytes; experiment: P. falciparum female gametocyte activation assay (Pf FGAA), 24 h or 48 h preincubation, Pfs25 expression readout; format: cell-based, Plasmodium falciparum NF54; conditions: mean, read-out: Gametocytes mean Pf FGAA IC50
Experimental: P. falciparum NF54 (originally isolated from an imported malaria case in the Netherlands in the 1980s; BEI Resources, cat. no. MRA-1000) asexual-stage culture was performed as described by Trager and Jensen[37]. Cultures synchronized at the ring stage were used to start gametocyte cultures (day 0) at 1% parasitaemia and 4% haematocrit in 200 ml final volume using culture bottles (Nalgene 3110-42, Thermo Scientific). Complete culture medium (RPMI 1640 supplemented with 25 mM HEPES, 50 μg ml^−1 hypoxanthine, 2 g l^−1 NaHCO3 and 10% pooled human male type A+ serum) was totally replaced daily for 14 days without fresh erythrocyte addition. Human serum was obtained from Interstate Blood Bank, A^+ serotype; no aspirin 2 h before drawing and no antimalarials 2 weeks before drawing. To ensure a stable temperature at 37 °C, which is crucial for gametocyte production and maturation, pre-warmed medium and a slide warmer (XH-2001, Premiere) were used. Under these conditions, parasitaemia reaches a peak of asexual stages on days 4–5, and the first gametocytes are differentiated in culture on day 6. Sexual-stage development was monitored microscopically by Giemsa-stained thin blood smears at day 7 (mainly asexual stages and stages I to III gametocytes) and day 14 (stages IV and V gametocytes).
Cultures showing mainly stage V gametocytes were purified by differential sedimentation as previously reported. The gametocyte concentration was adjusted to plate 8,000 gametocytes per well (100 μl per well) in 384-well poly-D-lysine coated plates (781946, Greiner Bio-One) containing the compounds to test. […] Female gametocyte activation was then triggered by temperature drop and addition of xanthurenic acid (D120804, Sigma) as previously described. To detect female gametes, monoclonal anti-Pfs25 antibody[38] 4B7 (BEI Resources (formerly MR4), cat. no. MRA-315) conjugated to the Cy3 fluorochrome (GE Healthcare) was added to ookinete medium (RPMI 1640 supplemented with 25 mM HEPES, 50 μg ml^−1 hypoxanthine, 2 g l^−1 NaHCO3, 100 μM xanthurenic acid and 20% human serum) at a final concentration of 0.5 μg ml^−1. Activated cultures were then kept at 26 °C for 24 h protected from light, and image acquisition was performed in the Opera High-Content Screening System (PerkinElmer). Using × 10 air objective, five images per well were taken using 532 nm excitation. Images were analysed with a Columbus image data storage and analysis system (PerkinElmer) based on a script specifically designed for this assay that considers size, roundness and intensity of fluorescence of the female activated gametocytes.
Compounds were dissolved in 100% DMSO and dispensed in the 384-well plates using an Echo-CRS liquid handler. Compounds were tested in 2–3 independent experiments. […] Based on that, Z′ factor was calculated for each plate and only those ones with values higher than 0.4 were considered acceptable for data analysis.
Assay performance statistics, such as signal to background ratio, Z′ and robust 3 s.d. activity cut-off were calculated using templates in ActivityBase XE (IDBS, Guilford, Surrey, UK). Hit population analysis and visualization were conducted using Spotfire DecisionSite (Spotfire, Inc., Somerville, MA, USA). The pIC50 (−log IC50) values were obtained using the ActivityBase XE nonlinear regression function in the full curve analysis bundle.

[3] = test system: P. falciparum asexual blood stages; conditions: read-out: Pf Asexual blood stages XC50, cited from earlier work
HepG2 cells = experiment: HepG2 cytotoxicity assay; format: cell-based
Experimental: After incubation, plates and CellTiter-Glo Reagent (G7571, Promega) were equilibrated at room temperature for 30 min before proceeding to develop the luminescent signal. Using a Multidrop combi dispenser, 25 μl per well of the signal developer were added to the plates and after 10 min at room temperature for stabilization, plates were read on the ViewLux system (Perkin Elmer).

[4] = P. falciparum female gametocytes
[5] = TCAMS asexual blood stage data, ref 1 (Gamo, F. J. et al., Nature 465, 305-310, 2010)
[6] = TCAMS data, ref 1 (Gamo et al., 2010)
[7] = P. falciparum female gametocyte activation assay

| SMILES | IC50 [2, 4] [nM] | IC50 [2] [nM] | IC50 [2, 7] [nM] | Gametocytes mean ATP inhibition at 2µM [1] [%] | IC50 [3, 5] [nM] | HepG2 cells mean TOX50 (HepG2 cells; HepG2 cells; mean) [µM] | Gametocytes mean ATP inhibition at 2µM (%) [1] [%] | IC50 [3, 6] [nM] | HepG2 cells mean TOX50 (HepG2 cells; mean) [µM] | HepG2 cells mean TOX50 (HepG2 cells; mean; HepG2 cells) [µM] |
| --- | --- | --- | --- | --- | --- | --- | --- | --- | --- | --- |
| CC(C)(C)c1ccc(CNC(=O)/C=C/c2ccc(CNC3CCNCC3)cc2)cc1 [TCMDC-140773] | – | 1920 | – | – | – | – | 8.96 | 1090 | 9.47 | – |
| CC(C)c1ccc(CN2CCC(CNC(=O)c3cc(-c4cccc(C(F)(F)F)c4)cs3)C2)cc1.O=C(O)C(F)(F)F (stereo not shown) [TCMDC-134435] | 1300 | – | – | -4.54 | 910 | 5.13 | – | – | – | – |
| FC(F)(F)c1ccc2[nH]c(-c3ccc(-c4cccc(CN5CCC(CCN6CCCCC6)CC5)c4)cc3)nc2c1.O=C(O)C(F)(F)F [TCMDC-133941] | 1260 | – | – | -7.71 | 150 | 4.45 | – | – | – | – |
| Br.Oc1ccc(CCNCCCCCCNCCc2ccc(Cl)c3ccccc23)cc1O [TCMDC-131271] | 2380 | – | – | 14.57 | 720 | 11.22 | – | – | – | – |
| Oc1c(C(Nc2ccccn2)c2ccc(Cl)cc2Cl)ccc2cccnc12 (stereo not shown) [TCMDC-125559] | 1140 | – | – | 84.30 | 890 | 12.74 | – | – | – | – |
| Fc1ccc(OC2CN(c3nccc(NCc4ccccc4Cl)n3)C2)cc1 [TCMDC-135110] | 5220 | – | – | 44.31 | 900 | 83.45 | – | – | – | – |
| C#CCOc1ccc2ccccc2c1CNCCCCCCNCc1c(OCC#C)ccc2ccccc12.CS(=O)(=O)O [TCMDC-137838] | – | 1050 | – | – | – | – | 77.84 | 780 | 2.92 | – |
| CC(C)(CN)c1nc(-c2ccc(Cl)c(O)c2)c(-c2ccncc2)[nH]1.Cl [TCMDC-140369] | – | 940 | – | – | – | – | -0.49 | 760 | 2.16 | – |
| COc1c(OC)c(OC)c2ccccc2c1CNCCCCCCNCc1c(OC)c(OC)c(OC)c2ccccc12.Cl [TCMDC-137827] | – | 1670 | – | – | – | – | -6.56 | 760 | 2.95 | – |
| Fc1ccc2[nH]c(-c3ccc(-c4ccc(CN5CCC(CCN6CCCCC6)CC5)cc4)cc3)nc2c1.O=C(O)C(F)(F)F [TCMDC-133924] | 1700 | – | – | 11.89 | 130 | 3.94 | – | – | – | – |
| FC(F)(F)c1ccc2[nH]c(-c3ccc(-c4ccc(CNCCN5CCNCC5)cc4)s3)nc2c1.O=C(O)C(F)(F)F [TCMDC-132862] | 3000 | – | – | -0.18 | 910 | 12.88 | – | – | – | – |

Continued, in another order:

| IC50 [2, 4] [nM] | IC50 [2] [nM] | IC50 [2, 7] [nM] | SMILES | Gametocytes mean ATP inhibition at 2µM [1] [%] | IC50 [3, 5] [nM] | HepG2 cells mean TOX50 (HepG2 cells; HepG2 cells; mean) [µM] | Gametocytes mean ATP inhibition at 2µM (%) [1] [%] | IC50 [3, 6] [nM] | HepG2 cells mean TOX50 (HepG2 cells; mean) [µM] | HepG2 cells mean TOX50 (HepG2 cells; mean; HepG2 cells) [µM] |
| --- | --- | --- | --- | --- | --- | --- | --- | --- | --- | --- |
| 1190 | – | – | Cn1c(Nc2cc(C(C)(C)C)on2)nc2cc(Nc3ccnc(Nc4cccc(S(=O)(=O)N5CCOCC5)c4)n3)ccc21 [TCMDC-134098] | 17.18 | 530 | 8.13 | – | – | – | – |
| – | 90 | – | COc1cccc(C23N=C(Nc4nc5ccccc5[nH]4)NC2(c2cccc(OC)c2)NC(Nc2nc4ccccc4[nH]2)=N3)c1 (stereo not shown) [TCMDC-139087] | – | – | – | 64.05 | 160 | 40.74 | – |
| 140 | – | – | c1ccc2sc(Sc3ncnc4sccc34)nc2c1 [TCMDC-125539] | 69.68 | 730 | >100 | – | – | – | – |
| – | 540 | – | Cc1ccc(C(=O)Nc2ccc(Nc3ccnc4cc(-c5ccccn5)ccc34)cc2O)cc1.Cl [TCMDC-138205] | – | – | – | 46.13 | 110 | 1.27 | – |
| – | – | 11900 | Cl.N=C1C=C(N)C(=O)c2ccccc21 [TCMDC-141992] | 55.55 | 1050 | – | – | – | – | 0.52 |
| 1260 | – | – | COc1ccc(CCNCCCCCCNCCc2ccc(-c3ccccc3)cc2)cc1OC.Cl [TCMDC-131267] | 51.20 | 960 | 6.90 | – | – | – | – |
| – | – | 900 | Cl.OC(CNCCCCCCNCC(O)c1ccc(Cl)c(Cl)c1)c1ccc(Cl)c(Cl)c1 (stereo not shown) [TCMDC-141987] | 0.38 | 920 | – | – | – | – | 4.27 |
| – | – | 40 | O=C(O)CCSSc1cccc[n+]1[O-] [TCMDC-141973] | 100.49 | 810 | – | – | – | – | 19.05 |
| – | – | 870 | CCN(CC)CCN(Cc1ccc(-c2ccc(C(F)(F)F)cc2)cc1)C(=O)Cn1cc(Cc2cnn(C)c2)c(=O)nc1/C=C/c1cccc(F)c1F [TCMDC-140964] | 69.60 | 960 | – | – | – | – | 9.69 |
| 4070 | – | – | COc1ccccc1CNc1ccnc(N2CC(Oc3ccc(F)cc3)C2)n1 [TCMDC-135118] | 42.55 | 850 | 73.68 | – | – | – | – |
| – | 920 | – | C#CCCOc1ccc2ccccc2c1CNCCCCCCNCc1c(OCCC#C)ccc2ccccc12 [TCMDC-137832] | – | – | – | 12.79 | 810 | 4.79 | – |

— publication PMC5442318, “Hundreds of dual-stage antimalarial molecules discovered by a functional gametocyte screen” (Nature Communications, 2017)
